Laboratory results from patent publication US7138361B2, “Herbicidal heterocycles” (E. I. du Pont de Nemours and Company, priority 2000, dated 2006).

How the values were obtained:
Format in all cases: in vivo
[1] = test system: corn (Zea mays); assay: Test B postemergence; conditions: 13 to 15 days
Source text: (§1) Seeds selected from barnyardgrass (Echinochloa crus-galli), Surinam grass (Brachiaria decumbens), cocklebur (Xanthium strumarium), corn (Zea mays), crabgrass (Digitaria sanguinalis), giant foxtail (Setaria faberii), lambsquarters (Chenopodium album), morning glory (Ipomoea hederacea), pigweed (Amaranthus retroflexus), rice (Oryza saliva) and velvetleaf (Abutilon theophrasti) were planted and treated preemergence with test chemicals formulated in a non-phytotoxic solvent mixture which included a surfactant.
(§2) At the same time, plants selected from these crop and weed species and also blackgrass (Alopecurus myosuroides), wheat (Triticum aestivum) and wild oat (Avena fatua) were treated with postemergence applications of test chemicals formulated in the same manner. Plants ranged in height from 2 to 18 cm (1- to 4-leaf stage) for postemergence treatments. Plant species in the flooded paddy test consisted of rice (Oryza saliva), smallflower flatsedge (Cyperus difformis), duck salad (Heteranthera limosa) and barnyardgrass (Echinochloa crus-galli) grown to the 2-leaf stage for testing. Treated plants and controls were maintained in a greenhouse for 13 to 15 days, after which time all species were compared to controls and visually evaluated. Plant response ratings, summarized in Table B, are based on a scale of 0 to 100 where 0 is no effect and 100 is complete control. A dash (-) response means no test result.

[2] = test system: giant foxtail (Setaria faberii); assay: Test B postemergence; conditions: 13 to 15 days
Source text: as §1, §2

[3] = test system: barnyardgrass (Echinochloa crus-galli); assay: Test B postemergence; conditions: 13 to 15 days
Source text: as §1, §2

[4] = test system: Surinam grass (Brachiaria decumbens); assay: Test B postemergence; conditions: 13 to 15 days
Source text: as §1, §2

[5] = test system: crabgrass (Digitaria sanguinalis); assay: Test B postemergence; conditions: 13 to 15 days
Source text: as §1, §2

[6] = test system: blackgrass (Alopecurus myosuroides); assay: Test B postemergence; conditions: 13 to 15 days
Source text: as §1, §2

[7] = test system: corn (Zea mays); assay: Test B preemergence
Source text: as §1, §2

[8] = test system: morning glory (Ipomoea hederacea); assay: Test B preemergence
Source text: as §1, §2

[9] = test system: giant foxtail (Setaria faberii); assay: Test B preemergence
Source text: as §1, §2

[10] = test system: rice (Oryza saliva); assay: Test B preemergence
Source text: as §1, §2

[11] = test system: barnyardgrass (Echinochloa crus-galli); assay: Test B preemergence
Source text: as §1, §2

[12] = test system: Surinam grass (Brachiaria decumbens); assay: Test B preemergence
Source text: as §1, §2

[13] = test system: pigweed (Amaranthus retroflexus); assay: Test B preemergence
Source text: as §1, §2

[14] = test system: velvetleaf (Abutilon theophrasti); assay: Test B preemergence
Source text: as §1, §2

[15] = test system: lambsquarters (Chenopodium album); assay: Test B preemergence
Source text: as §1, §2

[16] = test system: cocklebur (Xanthium strumarium); assay: Test B preemergence
Source text: as §1, §2

[17] = test system: crabgrass (Digitaria sanguinalis); assay: Test B preemergence
Source text: as §1, §2

[18] = test system: rice (Oryza saliva); assay: Test C flooded paddy test; conditions: for Rice plant response rating: scale 0 to 100, 0 no effect, 100 complete control
Method: (§3) At the same time, plants selected from these crop and weed species and also winter barley (Hordeum vulgare), blackgrass (Alopecurus myosuroides), canary grass (Phalaris minor), chickweed (Stellaria media), downy brome (Bromus tectorum), green foxtail (Setaria viridis), Italian ryegrass (Lolium multiflorum), wheat (Triticum aestivum), wild oat (Avena fatua) and windgrass (Apera spica-venti) were treated with postemergence applications of some of the test chemicals formulated in the same manner. Plants ranged in height from 2 to 18 cm (1- to 4-leaf stage) for postemergence treatments. Plant species in the flooded paddy test consisted of rice (Oryza saliva), smallflower flatsedge (Cyperus difformis), duck salad (Heteranthera limosa) and barnyardgrass (Echinochloa crus-galli) grown to the 2-leaf stage for testing. Treated plants and controls were maintained in a greenhouse for 12 to 14 days, after which time all species were compared to controls and visually evaluated. Plant response ratings, summarized in Table C, are based on a scale of 0 to 100 where 0 is no effect and 100 is complete control. A dash (-) response means no test result.

[19] = test system: barnyardgrass (Echinochloa crus-galli); assay: Test C flooded paddy test; conditions: for Barnyardgrass plant response rating: scale 0 to 100, 0 no effect, 100 complete control
Method: as §3

[20] = test system: duck salad (Heteranthera limosa); assay: Test C flooded paddy test; conditions: for Ducksalad plant response rating: scale 0 to 100, 0 no effect, 100 complete control
Method: as §3

[21] = test system: smallflower flatsedge (Cyperus difformis); assay: Test C flooded paddy test; conditions: for Flatsedge plant response rating: Flooded Paddy, scale 0 to 100, 0 no effect, 100 complete control; for Plant response rating, Flatsedge: scale 0 to 100 (0 no effect, 100 complete control)
Method: as §3

[22] = test system: morning glory (Ipomoea hederacea); assay: Test B postemergence; conditions: Rate 500 g/ha, scale 0 to 100, 0 is no effect, 100 is complete control, 13 to 15 days
Source text: as §1, §2

[23] = test system: wild oat (Avena fatua); assay: Test B postemergence; conditions: Rate 500 g/ha, scale 0 to 100, 0 is no effect, 100 is complete control, 13 to 15 days
Source text: as §1, §2

[24] = test system: wheat (Triticum aestivum); assay: Test B postemergence; conditions: Rate 500 g/ha, scale 0 to 100, 0 is no effect, 100 is complete control, 13 to 15 days
Source text: as §1, §2

[25] = test system: pigweed (Amaranthus retroflexus); assay: Test B postemergence; conditions: Rate 500 g/ha, scale 0 to 100, 0 is no effect, 100 is complete control, 13 to 15 days
Source text: as §1, §2

[26] = test system: velvetleaf (Abutilon theophrasti); assay: Test B postemergence; conditions: Rate 500 g/ha, scale 0 to 100, 0 is no effect, 100 is complete control, 13 to 15 days
Source text: as §1, §2

[27] = test system: lambsquarters (Chenopodium album); assay: Test B postemergence; conditions: Rate 500 g/ha, scale 0 to 100, 0 is no effect, 100 is complete control, 13 to 15 days
Source text: as §1, §2

[28] = Rate 125 g/ha, scale 0 (no effect) to 100 (complete control)
[29] = preemergence, Rate 125 g/ha, scale of 0 to 100 where 0 is no effect and 100 is complete control, 13 to 15 days
[30] = flooded paddy test, Rate 62 g/ha, scale 0 to 100 (0 no effect, 100 complete control)
[31] = flooded paddy test, Rate 125 g/ha, scale 0 to 100 (0 no effect, 100 complete control)
[32] = flooded paddy test, Rate 62 g/ha
[33] = flooded paddy test, Rate 125 g/ha
[34] = Rate 500 g/ha, scale 0 to 100, 0 is no effect, 100 is complete control
[35] = Preemergence, Rate 500 g/ha, scale 0 to 100, 0 no effect, 100 complete control
[36] = Flooded Paddy, Rate 1000 g/ha, scale 0 to 100
[37] = flooded paddy test, Rate 250 g/ha, scale 0 to 100 (0 no effect, 100 complete control)
[38] = flooded paddy test, Rate 62 g/ha, visually evaluated after 12 to 14 days, 0 = no effect, 100 = complete control

CCCCC(C)c1ccn(C2OCN(c3cccc(OC(F)(F)F)c3)C2=O)n1 (stereo not drawn) [Compound 97]
0: Plant response rating, Corn [1, 28] | Plant response rating, Foxtail, Giant [2, 28] | Plant response rating, Barnyardgrass [3, 28] | Plant response rating, Surinam grass [4, 28] | Plant response rating, Crabgrass [5, 28] | Plant response rating, Blackgrass [6, 28] | Plant response rating, Corn [7, 29] | Plant response rating, Morningglory [8, 29] | Plant response rating, Rice [10, 29] | Plant response rating, Surinam grass [12, 29] | Plant response rating, Pigweed [13, 29] | Plant response rating, Velvetleaf [14, 29] | Plant response rating, Cocklebur [16, 29] | Plant response rating, Rice [18, 30] | Plant response rating, Barnyardgrass [19, 30] | Ducksalad plant response rating ([20]; Flooded Paddy, Rate 500 g/ha) | Plant response rating, Ducksalad [20, 30] | Plant response rating, Ducksalad [20, 31]
90: Flatsedge plant response rating ([21]; Rate 500 g/ha) | Plant response rating, Flatsedge [21, 33]
40: Plant response rating, Barnyardgrass [19, 31]
100: Barnyardgrass plant response rating ([19]; Flooded Paddy, Rate 500 g/ha)
20: Plant response rating, Foxtail, Giant [9, 29] | Plant response rating, Lambsquarters [15, 29] | Plant response rating, Crabgrass [17, 29] | Rice plant response rating ([18]; Flooded Paddy, Rate 500 g/ha) | Plant response rating, Rice [18, 31]
30: Plant response rating, Barnyardgrass [11, 29] | Plant response rating, Flatsedge [21, 32]

CCCCC(C)c1ccn(C2OCN(c3cccc(C(F)(F)F)c3)C2=O)n1 (stereo not drawn) [Compound 98]
50: Rice plant response rating ([18]; Flooded Paddy, Rate 250 g/ha) | Rice plant response rating ([18]; Flooded Paddy, Rate 500 g/ha) | Plant response rating, Rice [18, 31] | Barnyardgrass plant response rating ([19]; Flooded Paddy, Rate 500 g/ha)
100: Plant response rating, Pigweed [25] | Plant response rating, Lambsquarters [15, 35] | Plant response rating, Crabgrass [17, 35]
90: Plant response rating, Foxtail, Giant [9, 35] | Plant response rating, Barnyardgrass [11, 35] | Flatsedge plant response rating ([21]; Rate 250 g/ha) | Flatsedge plant response rating ([21]; Rate 500 g/ha)
20: Plant response rating, Foxtail, Giant [2, 34] | Plant response rating, Velvetleaf [26] | Plant response rating, Crabgrass [5, 34]
30: Plant response rating, Rice [10, 35] | Barnyardgrass plant response rating ([19]; Flooded Paddy, Rate 250 g/ha)
40: Plant response rating, Pigweed [13, 35]
60: Plant response rating, Lambsquarters [15, 29] | Plant response rating, Flatsedge [21, 32]
80: Plant response rating, Lambsquarters [27] | Plant response rating, Flatsedge [21, 33]
0: Plant response rating, Corn [1, 28] | Plant response rating, Corn [1, 34] | Plant response rating, Morningglory [22] | Plant response rating, Wild Oat [23] | Plant response rating, Foxtail, Giant [2, 28] | Plant response rating, Barnyardgrass [3, 28] | Plant response rating, Barnyardgrass [3, 34] | Plant response rating, Surinam grass [4, 28] | Plant response rating, Surinam grass [4, 34] | Plant response rating, Wheat [24] | Plant response rating, Crabgrass [5, 28] | Plant response rating, Blackgrass [6, 28] | Plant response rating, Blackgrass [6, 34] | Plant response rating, Corn [7, 35] | Plant response rating, Corn [7, 29] | Plant response rating, Morningglory [8, 35] | Plant response rating, Morningglory [8, 29] | Plant response rating, Foxtail, Giant [9, 29] | Plant response rating, Rice [10, 29] | Plant response rating, Barnyardgrass [11, 29] | Plant response rating, Surinam grass [12, 35] | Plant response rating, Surinam grass [12, 29] | Plant response rating, Pigweed [13, 29] | Plant response rating, Velvetleaf [14, 35] | Plant response rating, Velvetleaf [14, 29] | Plant response rating, Cocklebur [16, 35] | Plant response rating, Cocklebur [16, 29] | Plant response rating, Crabgrass [17, 29] | Plant response rating, Rice [18, 30] | Plant response rating, Barnyardgrass [19, 30] | Plant response rating, Barnyardgrass [19, 31] | Ducksalad plant response rating ([20]; Flooded Paddy, Rate 250 g/ha) | Ducksalad plant response rating ([20]; Flooded Paddy, Rate 500 g/ha) | Plant response rating, Ducksalad [20, 30] | Plant response rating, Ducksalad [20, 31]

CC(C)(C)C1=NN(C2CCN(c3cccc(C(F)(F)F)c3)C2=O)CC1 (stereo not drawn) [Compound 135]
100: Flatsedge plant response rating ([21]; rate of this column group stands in head line r653, not shown (group before Rate 500 g/ha))
20: Barnyardgrass plant response rating ([19]; Flooded Paddy, Rate 500 g/ha) | Plant response rating, Flatsedge [21, 33]
90: Flatsedge plant response rating ([21]; Rate 500 g/ha) | Plant response rating, Flatsedge ([21]; flooded paddy test, Rate 250 g/ha)
30: Plant response rating, Barnyardgrass [19, 36] | Plant response rating, Ducksalad [20, 36]
0: Plant response rating, Rice [18, 36] | Rice plant response rating ([18]; Flooded Paddy, Rate 500 g/ha) | Plant response rating, Rice [18, 31] | Plant response rating, Rice [18, 37] | Plant response rating (scale 0 to 100), Rice [18, 38] | Plant response rating, Barnyardgrass [19, 31] | Plant response rating, Barnyardgrass [19, 37] | Plant response rating (scale 0 to 100), Barnyardgrass [19, 38] | Ducksalad plant response rating ([20]; Flooded Paddy, Rate 500 g/ha) | Plant response rating, Ducksalad [20, 31] | Plant response rating, Ducksalad [20, 37] | Plant response rating (scale 0 to 100), Ducksalad [20, 38] | Plant response rating (scale 0 to 100), Flatsedge [21, 38]
